The subject of one assay is A375 cells. Briefly: Inhibition of cancer cell growth, MTT assay, A375. The class given is cell-based. Summed up: (§1)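 IC50 derived from percent growth inhibition versus concentration, tested in triplicate. Growth inhibition came from MTT read at 570 nm after 72 h drug exposure, relative to viable cells at dosing. Cells (about 4000/well, RPMI 1640 + 10% FBS) adhered 24 h before treatment; final DMSO 1%.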
(In general: Tetrazolium assays rely on reduction of a dye to a coloured formazan, in cell work by metabolically active cells.)

Another assay has as its system A549 cells. Kind of assay: Inhibition of cancer cell growth, MTT assay, A549. The class given is cell-based. Summed up: as §1
The target of a further assay is BRAF V600E (Homo sapiens (Human), UniProt P15056, V600E). Kind of assay: Z′-LYTE kinase inhibition assay (Invitrogen), BRAF V600E. In kind it is biochemical. To be noted: Z′-LYTE method; for inhibition at 1 µM: read-out: % inhibition at 1 μM against BRAF V600E. In outline: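 FRET-based Z′-LYTE peptide phosphorylation format in 50 mM HEPES pH 7.5, 0.01% BRIJ-35, 10 mM MgCl2, 1 mM EGTA with ATP. Kinase reaction 60 min at room temperature, then protease development step 60 min at room temperature before fluorescence read. IC50 from compound concentration versus percent inhibition.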
Chain of BRAF V600E (P15056 whole entry V600E): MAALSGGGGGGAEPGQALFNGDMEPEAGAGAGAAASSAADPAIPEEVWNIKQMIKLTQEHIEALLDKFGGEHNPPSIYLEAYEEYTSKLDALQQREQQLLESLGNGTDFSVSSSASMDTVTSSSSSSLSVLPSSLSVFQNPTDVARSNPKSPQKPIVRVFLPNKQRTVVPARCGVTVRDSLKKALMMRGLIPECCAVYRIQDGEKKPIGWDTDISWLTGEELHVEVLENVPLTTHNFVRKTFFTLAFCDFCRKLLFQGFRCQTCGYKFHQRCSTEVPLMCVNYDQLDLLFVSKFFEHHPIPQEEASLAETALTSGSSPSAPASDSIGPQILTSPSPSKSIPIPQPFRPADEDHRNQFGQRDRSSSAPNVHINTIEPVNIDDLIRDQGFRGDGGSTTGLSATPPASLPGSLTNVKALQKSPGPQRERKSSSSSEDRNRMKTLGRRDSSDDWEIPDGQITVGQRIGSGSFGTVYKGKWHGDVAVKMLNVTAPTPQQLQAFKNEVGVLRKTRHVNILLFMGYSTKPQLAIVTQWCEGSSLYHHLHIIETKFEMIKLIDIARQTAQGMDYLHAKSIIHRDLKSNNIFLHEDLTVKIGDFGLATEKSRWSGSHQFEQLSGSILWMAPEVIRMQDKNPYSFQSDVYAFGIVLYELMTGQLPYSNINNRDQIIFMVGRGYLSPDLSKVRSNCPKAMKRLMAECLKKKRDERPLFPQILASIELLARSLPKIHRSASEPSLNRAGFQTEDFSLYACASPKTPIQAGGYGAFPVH

The next assay concerns the target BRAF (Homo sapiens (Human), UniProt P15056). Briefly: Z′-LYTE kinase inhibition assay (Invitrogen), BRAF. Particulars: 1 μM compound, Z′-LYTE method; for inhibition at 1 µM: read-out: % inhibition at 1 μM against BRAF. The class given is biochemical. The procedure: Inhibitory activities Inhibitory activities of compounds against BRAF, and BRAF V600E were measured by Invitrogen using Z′-LYTE® Method as briefly described in the following. 4× Test compounds are dissolved in 1% DMSO. […] ATP solutions are diluted to a 4×ATP working concentration in Kinase Buffer (50 mM HEPES pH 7.5, 0.01% BRIJ-35, 10 mM MgCl2, 1 mM EGTA). Reaction started by 30-second shaking of mixture consisting of 2.5 μL 4× test compound, […] and 2.5 μL 4×ATP Solution on Bar-coded Corning, low volume NBS, black 384-well plate (Corning Cat. #3676). Then the mixture was incubated for 60-minute at room temperature for the kinase reaction, followed by addition of 5 μL of a 1:1024 dilution of development reagent A and 30-second plate shake. The mixture was then incubated for another 60-minute at room temperature for development reaction. Fluorescence was read by plate reader. IC50 was calculated by plotting the concentration of compound vs the percentage of inhibition in treated wells using GraphPad Prism 5.

For the next assay, the target named is KDR (VEGFR2) (Homo sapiens (Human), UniProt P35968). Briefly: Z′-LYTE kinase inhibition assay (Invitrogen), KDR. In kind it is biochemical. To be noted: Z′-LYTE method; for inhibition at 1 µM: read-out: % inhibition at 1 μM against KDR; for IC50: read-out: IC50 against KDR. Summed up:
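Z′-LYTE FRET assay: 10 μL reactions with 0.5–11.7 ng KDR and 2 μM Tyr 01 peptide in 50 mM HEPES pH 7.5, 10 mM MgCl2, 1 mM EGTA, 0.01% BRIJ-35, 1 h at room temperature. Development Reagent B (1:256) added for 60 min, fluorescence read; IC50 from concentration–inhibition curves.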

[1] abbreviates: Homo sapiens, A-375, 72 h exposure.
Where [2] appears, read: Homo sapiens, A549, 72 h exposure.

The text below walks through data of US10759766B2, “Certain chemical entities, compositions, and methods” (NeuPharma, Inc., priority 2011, dated 2020).

Chain of BRAF (P15056 whole entry): as the sequence (P15056 whole entry V600E) above, with E600V counted along it
Chain of KDR (VEGFR2) (P35968 20-1356): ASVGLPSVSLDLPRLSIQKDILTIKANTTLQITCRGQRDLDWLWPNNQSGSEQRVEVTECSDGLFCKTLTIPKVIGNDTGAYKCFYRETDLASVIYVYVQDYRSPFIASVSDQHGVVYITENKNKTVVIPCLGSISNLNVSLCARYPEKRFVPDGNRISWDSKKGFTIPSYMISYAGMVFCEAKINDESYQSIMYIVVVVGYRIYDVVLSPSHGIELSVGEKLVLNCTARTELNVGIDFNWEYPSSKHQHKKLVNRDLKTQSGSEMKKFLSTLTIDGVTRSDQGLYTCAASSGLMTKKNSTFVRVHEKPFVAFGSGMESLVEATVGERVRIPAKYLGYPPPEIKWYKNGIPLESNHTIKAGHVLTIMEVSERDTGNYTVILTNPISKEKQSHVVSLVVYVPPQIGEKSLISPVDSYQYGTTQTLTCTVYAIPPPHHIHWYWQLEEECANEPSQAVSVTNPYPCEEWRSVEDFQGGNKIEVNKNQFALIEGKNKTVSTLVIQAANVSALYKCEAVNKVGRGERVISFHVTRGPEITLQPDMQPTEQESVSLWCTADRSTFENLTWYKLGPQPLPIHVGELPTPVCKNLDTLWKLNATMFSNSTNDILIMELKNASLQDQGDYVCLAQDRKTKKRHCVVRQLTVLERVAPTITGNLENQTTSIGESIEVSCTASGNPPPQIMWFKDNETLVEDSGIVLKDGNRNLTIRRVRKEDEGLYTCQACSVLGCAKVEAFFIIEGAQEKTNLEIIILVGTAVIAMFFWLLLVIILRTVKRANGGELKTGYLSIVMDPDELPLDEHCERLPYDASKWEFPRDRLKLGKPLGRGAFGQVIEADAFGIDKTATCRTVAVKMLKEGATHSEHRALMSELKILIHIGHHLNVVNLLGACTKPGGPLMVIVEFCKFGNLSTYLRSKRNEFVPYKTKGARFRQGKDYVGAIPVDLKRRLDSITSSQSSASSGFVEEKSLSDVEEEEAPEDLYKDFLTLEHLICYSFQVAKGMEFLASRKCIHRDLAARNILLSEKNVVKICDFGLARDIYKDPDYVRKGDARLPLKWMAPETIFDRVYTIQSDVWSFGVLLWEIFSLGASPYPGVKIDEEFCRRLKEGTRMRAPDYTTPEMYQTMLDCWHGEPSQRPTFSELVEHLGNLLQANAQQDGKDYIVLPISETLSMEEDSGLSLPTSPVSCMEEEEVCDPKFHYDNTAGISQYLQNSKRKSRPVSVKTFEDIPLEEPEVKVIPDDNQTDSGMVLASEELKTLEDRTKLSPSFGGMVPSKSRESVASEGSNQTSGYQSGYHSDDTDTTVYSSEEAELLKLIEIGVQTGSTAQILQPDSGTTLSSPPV

For the compound “1-(fluorophenyl)-3-(2,4,5-trifluoro-3-(quinoxaline-6-carbonyl)phenyl)urea [Compound C005]”, the IC50 in the assay on A375 cells (72 h exposure) and with A549 cells (72 h exposure) was > 5 µM throughout. The “% inhibition at 1 μM against BRAF V600E” value on BRAF V600E (1 μM compound) is “++ (between 70% and 89% inhibition)”. Further, the “% inhibition at 1 μM against BRAF” value at BRAF is “+ (less than 70% inhibition)”. Moreover, at KDR (VEGFR2) (1 μM compound), the “% inhibition at 1 μM against KDR” value is “+ (less than 70% inhibition)”.

For `O=C(Nc1cccc(F)c1)Nc1cccc(C(=O)c2ccc3nccnc3c2)c1` [Compound C001, 1-(3-fluorophenyl)-3-(3-(quinoxaline-6-carbonyl)phenyl)urea], the values for the IC50 in the assay with A375 cells (setting [1]) and in the assay on A549 cells (setting [2]) were 1 to 5 µM and < 2 µM, respectively. Also, the inhibition at 1 µM is > 89% on BRAF V600E (1 μM compound), 70 to 89% at BRAF and < 70% at KDR (VEGFR2) (1 μM compound).

For the compound `O=C(Nc1cccc(C(=O)c2ccc3nccnc3c2)c1)Nc1cc(C(F)(F)F)ccc1Cl` [Compound C002, 1-(2-chloro-5-(trifluoromethyl)phenyl)-3-(3-(quinoxaline-6-carbonyl)phenyl)urea], the IC50 with A375 cells (setting [1]) is 1 to 5 µM; in the assay with A549 cells (setting [2]) it was < 2 µM. In addition, the inhibition at 1 µM is > 89% at BRAF V600E (1 μM compound), 70 to 89% on BRAF and < 70% on KDR (VEGFR2) (1 μM compound).

`O=C(Nc1cccc(Cl)c1)Nc1cccc(C(=O)c2ccc3nccnc3c2)c1` [Compound C003, 1-(3-chlorophenyl)-3-(3-(quinoxaline-6-carbonyl)phenyl)urea]: the figures for the 50% inhibitory concentration (IC50) in the assay with A375 cells (setting [1]) and with A549 cells (setting [2]) were < 1 µM and 2 to 5 µM, respectively. The results for the inhibition at 1 µM on BRAF V600E (1 μM compound), at BRAF and at KDR (VEGFR2) (1 μM compound) were > 89%, 70 to 89% and 70 to 89%, respectively.

For `O=C(Nc1cccc(C(=O)c2ccc3nccnc3c2)c1)Nc1ccc(Cl)c(C(F)(F)F)c1` [Compound C004, 1-(4-chloro-3-(trifluoromethyl)phenyl)-3-(3-(quinoxaline-6-carbonyl)phenyl)urea], the IC50 with A375 cells (setting [1]) was 1 to 5 µM; in the assay with A549 cells (setting [2]), < 2 µM; on BRAF V600E (read-out: IC50 against BRAF V600E), < 0.1 µM; on KDR (VEGFR2), < 0.1 µM. Moreover, the figures for the inhibition at 1 µM at BRAF V600E (1 μM compound), at BRAF and on KDR (VEGFR2) (1 μM compound) were > 89%, 70 to 89% and 70 to 89%, respectively.

On to `O=C(Nc1cccc(C(F)(F)F)c1)Nc1cc(F)c(F)c(C(=O)c2ccc3nccnc3c2)c1F` [Compound C006, 1-(2,4,5-trifluoro-3-(quinoxaline-6-carbonyl)phenyl)-3-(3-(trifluoromethyl)phenyl)urea], for which the IC50 with A375 cells (setting [1]) and in the assay with A549 cells (setting [2]) was > 5 µM in each case. Besides, the inhibition at 1 µM at BRAF V600E (1 μM compound) is 70 to 89%; at BRAF it was < 70%; on KDR (VEGFR2) (1 μM compound) it was < 70%.

As for `O=C(Nc1ccc(Cl)c(C(F)(F)F)c1)Nc1cc(F)c(F)c(C(=O)c2ccc3nccnc3c2)c1F` [Compound C007, 1-(4-chloro-3-(trifluoromethyl)phenyl)-3-(2,4,5-trifluoro-3-(quinoxaline-6-carbonyl)phenyl)urea], the IC50 in the assay with A375 cells (setting [1]) is 1 to 5 µM; with A549 cells (setting [2]) it was 2 to 5 µM. For the same compound, the inhibition at 1 µM on BRAF V600E (1 μM compound), on BRAF and on KDR (VEGFR2) (1 μM compound) was < 70% each time.

Turning to `O=C(Nc1ccc(Cl)c(C(F)(F)F)c1)Nc1ccc(F)c(C(=O)c2ccc3nccnc3c2)c1Cl` [Compound C008, 1-(4-chloro-3-(trifluoromethyl)phenyl)-3-(2-chloro-4-fluoro-3-(quinoxaline-6-carbonyl)phenyl)urea], the results for the IC50 in the assay on A375 cells (setting [1]) and in the assay with A549 cells (setting [2]) were > 5 µM and 2 to 5 µM, respectively. In addition, the inhibition at 1 µM on BRAF V600E (1 μM compound), at BRAF and at KDR (VEGFR2) (1 μM compound) was < 70% throughout.

As for `O=C(Nc1ccc(F)cc1)Nc1ccc(F)c(C(=O)c2ccc3ncc(N4CCNCC4)nc3c2)c1` [Compound C100, 1-(4-fluoro-3-(3-(piperazin-1-yl)quinoxaline-6-carbonyl)phenyl)-3-(4-fluorophenyl)urea], the IC50 with A549 cells (setting [2]) is 2 to 5 µM; on KDR (VEGFR2), < 0.1 µM. Moreover, the inhibition at 1 µM at BRAF V600E (1 μM compound), on BRAF and at KDR (VEGFR2) (1 μM compound) was > 89% each time.

Consider `O=C(Nc1cc(F)c(F)c(C(=O)c2ccc3nccnc3c2)c1)c1ccc(Cl)c(C(F)(F)F)c1` [Compound C129, 4-chloro-N-(3,4-difluoro-5-(quinoxaline-6-carbonyl)phenyl)-3-(trifluoromethyl)benzamide], for which the results for the IC50 with A375 cells (setting [1]) and in the assay on A549 cells (setting [2]) were 1 to 5 µM and > 5 µM, respectively. Besides, the inhibition at 1 µM at BRAF V600E (1 μM compound) was > 89%; on KDR (VEGFR2) (1 μM compound) it was 70 to 89%.

As to `Cn1cc(-c2cnc3ccc(C(=O)c4cccc(NC(=O)c5ccc(Cl)c(C(F)(F)F)c5)c4)cc3n2)cn1` [Compound C130, 4-chloro-N-(3-(3-(1-methyl-1H-pyrazol-4-yl)quinoxaline-6-carbonyl)phenyl)-3-(trifluoromethyl)benzamide], the results for the IC50 in the assay on A375 cells (setting [1]) and in the assay on A549 cells (setting [2]) were 1 to 5 µM and < 2 µM, respectively. The inhibition at 1 µM on BRAF V600E (1 μM compound) and on KDR (VEGFR2) (1 μM compound) was > 89% throughout.

For `O=C(Nc1cc(F)c(F)c(C(=O)c2ccc3nccnc3c2)c1)c1cccc(F)c1` [Compound C131, N-(3,4-difluoro-5-(quinoxaline-6-carbonyl)phenyl)-3-fluorobenzamide], the IC50 in the assay on A375 cells (setting [1]) and with A549 cells (setting [2]) was > 5 µM in each case. Further, the inhibition at 1 µM was > 89% on BRAF V600E (1 μM compound) and < 70% at KDR (VEGFR2) (1 μM compound).

In the case of `O=C(Nc1cc(F)cc(C(=O)c2ccc3ncc(N4CCOCC4)nc3c2)c1)c1ccc(Cl)c(C(F)(F)F)c1` [Compound C135, 4-chloro-N-(3-fluoro-5-(3-morpholinoquinoxaline-6-carbonyl)phenyl)-3-(trifluoromethyl)benzamide], the IC50 with A375 cells (setting [1]) is 1 to 5 µM; with A549 cells (setting [2]) it was > 5 µM. Further, the values for the inhibition at 1 µM at BRAF V600E (1 μM compound) and on KDR (VEGFR2) (1 μM compound) were 70 to 89% and < 70%, respectively.

Regarding `O=C(Nc1ccc(F)c(C(=O)c2ccc3ncc(N4CCOCC4)nc3c2)c1)c1cccc(F)c1` [Compound C136], the IC50 is 1 to 5 µM in the assay with A375 cells (setting [1]) and > 5 µM in the assay with A549 cells (setting [2]). In addition, the inhibition at 1 µM at BRAF V600E (1 μM compound) and on KDR (VEGFR2) (1 μM compound) was > 89% throughout.

As for `O=C(Nc1cc(F)c(F)c(C(=O)c2ccc3ncc(N4CCOCC4)nc3c2)c1F)c1cccc(F)c1` [Compound C137, 3-fluoro-N-(2,4,5-trifluoro-3-(3-morpholinoquinoxaline-6-carbonyl)phenyl)benzamide], the IC50 in the assay on A375 cells (setting [1]) and in the assay on A549 cells (setting [2]) was > 5 µM throughout. For the same compound, the inhibition at 1 µM at BRAF V600E (1 μM compound) and at KDR (VEGFR2) (1 μM compound) was 70 to 89% each time.

Turning to `O=C(Nc1cc(F)c(F)c(C(=O)c2ccc3ncc(N4CCOCC4)nc3c2)c1F)c1cccc(C(F)(F)F)c1` [Compound C138, N-(2,4,5-trifluoro-3-(3-morpholinoquinoxaline-6-carbonyl)phenyl)-3-(trifluoromethyl)benzamide], the IC50 was 1 to 5 µM in the assay on A375 cells (setting [1]) and > 5 µM with A549 cells (setting [2]). Also, the figures for the inhibition at 1 µM on BRAF V600E (1 μM compound) and on KDR (VEGFR2) (1 μM compound) were 70 to 89% and > 89%, respectively.

In the case of `O=C(Nc1cc(F)c(F)c(C(=O)c2ccc3ncc(N4CCOCC4)nc3c2)c1F)c1ccc(Cl)c(C(F)(F)F)c1` [Compound C139], the IC50 in the assay on A375 cells (setting [1]) and in the assay with A549 cells (setting [2]) was > 5 µM each time. The inhibition at 1 µM on BRAF V600E (1 μM compound) and on KDR (VEGFR2) (1 μM compound) was < 70% throughout.

As for `O=C(Nc1cc(F)c(F)c(C(=O)c2ccc3nccnc3c2)c1F)c1ccc(Cl)c(C(F)(F)F)c1` [Compound C140, 4-chloro-N-(2,4,5-trifluoro-3-(quinoxaline-6-carbonyl)phenyl)-3-(trifluoromethyl)benzamide], the IC50 in the assay with A375 cells (setting [1]) and with A549 cells (setting [2]) was > 5 µM each time. In addition, the inhibition at 1 µM on BRAF V600E (1 μM compound) was 70 to 89%; at KDR (VEGFR2) (1 μM compound), < 70%.

In the case of `O=C(Nc1cc(F)cc(C(=O)c2ccc3ncc(N4CCOCC4)nc3c2)c1)c1cccc(F)c1` [Compound C142, 3-fluoro-N-(3-fluoro-5-(3-morpholinoquinoxaline-6-carbonyl)phenyl)benzamide], the IC50 was 1 to 5 µM with A375 cells (setting [1]) and 2 to 5 µM in the assay with A549 cells (setting [2]). The inhibition at 1 µM at BRAF V600E (1 μM compound) and on KDR (VEGFR2) (1 μM compound) was 70 to 89% each time.

What is called IC50 is the point on the concentration scale where inhibition reaches its midpoint. The inhibition is the change of the read-out against control, counted positive when it falls.
